From patent US7495004B2, “Purine derivatives as liver X receptor agonists” (Glaxo Group Limited, priority 2002, dated 2009)

Columns and labels:
[1] = target: T1, LXRα ligand binding domain (Homo sapiens, UniProt Q13133); assay: Assay for LXRα activity (HTRF, SRC-1 peptide recruitment); assay type: biochemical; settings: 1 μM; over a background reading of 10000 fluorescence units
T1 construct: His tag; made in house
T1 sequence (Q13133 183-447): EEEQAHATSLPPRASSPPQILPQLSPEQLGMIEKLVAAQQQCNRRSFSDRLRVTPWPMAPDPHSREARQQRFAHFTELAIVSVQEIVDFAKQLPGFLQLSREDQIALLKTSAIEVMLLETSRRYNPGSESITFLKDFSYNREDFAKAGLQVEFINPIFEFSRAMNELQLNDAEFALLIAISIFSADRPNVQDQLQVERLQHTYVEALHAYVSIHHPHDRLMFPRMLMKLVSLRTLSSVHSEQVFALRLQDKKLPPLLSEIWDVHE
T1 sequence (Q15788 676-700 partner): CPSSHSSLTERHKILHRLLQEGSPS
Protocol: The assay for LXRα was run according to the procedures of Example 1, above using his-tagged LXRα ligand binding domain (amino acids 183-447 of Genbank accession number U22662, with the 14th amino acid corrected to A from R). Percentage control is relative to 24(S),25-epoxycholesterol.
In this assay 1 μM 24(S),25-epoxycholesterol gave a reading of 20000 fluorescence units over a background reading of 10000 fluorescence units.

[2] = target: T2, human LXRβ ligand binding domain (Homo sapiens, UniProt P55055); assay: Assay for LXRβ activity (HTRF, SRC-1 peptide recruitment); assay type: biochemical; settings: 1 μM; over a background reading of 10000 fluorescence units
T2 construct: made in house; host or cells: E. coli BL21 (DE3), vector pRSETa
T2 sequence (P55055 184-460 limits assumed): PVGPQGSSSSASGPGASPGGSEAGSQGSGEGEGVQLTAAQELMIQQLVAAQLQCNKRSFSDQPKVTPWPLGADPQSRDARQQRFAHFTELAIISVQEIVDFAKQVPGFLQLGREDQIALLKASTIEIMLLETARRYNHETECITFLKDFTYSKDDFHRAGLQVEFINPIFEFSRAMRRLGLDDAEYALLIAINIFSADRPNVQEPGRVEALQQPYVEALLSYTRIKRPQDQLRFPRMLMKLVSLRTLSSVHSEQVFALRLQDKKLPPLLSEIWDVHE
T2 sequence (Q15788 676-700 partner limits assumed): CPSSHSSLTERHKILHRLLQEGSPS
Protocol: A modified polyhistidine tag (MKKGHHHHHHG) (SEQ ID No. 1) was fused in frame to the human LXRβ ligand binding domain (amino acids 185-461 of Genbank accession number U07132) and subeloned into the expression vector pRSETa (Invitrogen) under the control of an IPTG inducible T7 promoter. The human LXRβ ligand binding domain was expressed in E. coli strain BL21 (DE3). Ten-liter fermentation batches were grown in Rich PO4 media with 0.1 mg/mL Ampicillin at 25° C. for 12 hours, cooled to 9° C. and held at that temperature for 36 hours to a density of OD600=14. At this cell density, 0.25 mM IPTG was added and induction proceeded for 24 hours at 9° C., to a final OD600=16. Cells were harvested by centrifugation (20 minutes, 3500 g, 4° C.), and concentrated cell slurries were stored in PBS at −80° C.
Typically 25-50 g of cell paste is resuspended in 250-500 mL TBS, pH 8.0 (25 mM Tris, 150 mM NaCl). Cells are lysed by passing 3 times through an APV Rannie MINI-lab homogenizer, and cell debris is removed by centrifugation (30 minutes, 20,000 g, 4° C.). […] After washing to baseline absorbance with equilibration buffer, the column is washed with approximately one column volume of TBS pH […] containing 95 mM imidazole. […] After washing to baseline absorbance with the dilution buffer the protein is eluted with a gradient from 50-500 mM NaCl. […]

Q: Which results are given for C[C@H](CC[C@@H]1OC1(C)C)[C@H]1CC[C@H]2[C@@H]3CC=C4C[C@@H](O)CC[C@]4(C)[C@H]3CC[C@]12C [24(S),25-epoxycholesterol]?
A: reading in LXRα assay [1]: 20000 fluorescence units; reading in LXRβ assay [2]: 20000 fluorescence units
